This is an account of results in patent US20050233304A1, “Method of screening remedy for renal failure” (YAMANOUCHI PHARMACEUTICAL CO., LTD., priority 2002, published 2005).

Assay type in all cases: cell-based
One assay deals with CTGF mRNA expression. The experiment in a line: Inhibition of intrinsic CTGF mRNA expression in primary human proximal renal tubule epithelium cells (RPTEC), real time PCR. Particulars: 10 μM compound, 24 hours, CTGF/G3PDH, DMSO control = 100%. On the procedure:
Primary culture cells of human proximal renal tubule epithelium (RPTEC; Asahi Technoglass) were plated at 2×10^5 cells per well into 12-well plates (Asahi Technoglass) using a proliferation medium for kidney epithelial cell use (Burette Kit REGM; Asahi Technoglass). After incubation for 24 hours at 37° C., each of the test compounds obtained in Example 5 (substances which inhibit FGK activity, namely FGK inverse agonists) was added thereto to a final concentration of 10 μM, and then incubated for additional 24 hours at 37° C. Thereafter, the cells were collected and the total RNA was purified using a spin column (RNeasy Mini Kit; Qiagen). Reverse transcription reaction was carried out using 1.5 μg of the total RNA and a reverse transcriptase (PowerScript Transcriptase; BD Biosciences) to obtain cDNA samples. Using each of them as the template, expressed amounts of CTGF and a housekeeping gene of glyceraldehyde 3-phosphate dehydrogenase (to be referred to as G3PDH hereinafter) were measured by real time PCR using PRISM 7700 Sequence Detector (PERKIN ELMER). In the PCR, SYBR Green PCR Master Mix (Applied Biosystems) was used, and after heating at 50° C. (2 minutes) and 95° C. (10 minutes), a cycle of 95° C. (15 seconds)/60° C. (60 seconds) was repeated for 40 times. For the detection of CTGF, an oligonucleotide represented by SEQ ID NO:17 was used as the forward primer, and an oligonucleotide represented by SEQ ID NO:18 was used as the reverse primer. For the detection of G3PDH, an oligonucleotide represented by SEQ ID NO:19 was used as the forward primer and an oligonucleotide represented by SEQ ID NO:20 was used as the reverse primer. A value calculated by dividing the expressed amount of CTGF by the expressed amount of G3PDH, both obtained by the PCR, was defined as the CTGF expression quantity per unit RNA quantity. Also, as a control of the compound treatment, the CTGF expression quantity per unit RNA quantity when the same volume of dimethyl sulfoxide alone was added was regarded as 100%. The inhibitory activity of CTGF expression obtained by the assay (inhibitory activity at a compound concentration of 10 μM) is shown in Table 1.
A general note: Quantitative PCR measures a nucleic acid by following its amplification.

Assay [1] concerns CTGF promoter activation by FGK. The assay is described as follows: Inhibition of CTGF promoter activation by FGK: pCTGF-luc reporter in HEK293 cells transfected with human FGK. Particulars: HEK293 cells transfected with pCTGF-luc and human FGK plasmid; 24 hours with compound; DMSO control = 100%; read-out: Example 7 Inhibition of pCTGF-luc activity IC50. Here is the method:
Using Dulbecco's modified Eagle's medium (DMEM) containing 10% fetal bovine serum, HEK293 cells (obtained from ATCC) were dispensed in 1×10^5 cells per well portions into a 24-well plate (Asahi Technoglass) and cultured at 37° C. for 24 hours. Transfection of 0.1 μg of a reporter plasmid and 0.5 μg at the maximum of a human FGK expression plasmid which is 0.6 μg in total per well was carried out using a transfection reagent (FuGENE6; Boehringer-Roche) in accordance with the instructions attached thereto. In this case, the amount of the transfected genes in each of the all wells was adjusted to 0.6 μg in total per well by adding a plasmid vector (pcDNA3.1; Invitrogen). Cells transfected with the pcDNA3.1 vector alone without containing FGK, together with the reporter plasmid, was used as the control. The medium was discarded 24 hours after transfection, and the residue was lysed by adding 100 μl per well of a cell lysis buffer. A […] portion of the lysate was mixed with 100 μl of a luciferin substrate solution and allowed to undergo the reaction to be measured using a luminometer (ML3000; Dynatech Laboratories). Activation of the CTGF promoter and COLIA2 promoter by the expression of FGK was observed. Additionslly, dose-dependent activation by FGK was also observed.
Screening of a test compound constructed in Example 3 was carried out using the CTGF promoter activation system by FGK.
HEK293 cells (obtained from ATCC) were plated at 1×10^4 cells per well into 96-well plates (Asahi Technoglass) in Dulbecco's modified Eagle's medium containing 10% fetal bovine serum (DMEM). After incubation for 24 hours at 37° C., cells were transfected with 0.02 μg of pCTGF-luc (cf. Example 2) and 0.02 μg of a human FGK expression plasmid which is 0.04 μg in total per well was carried out using a transfection reagent (FuGENE6; Boehringer-Roche). After incubation for 6 hours at 37° C., a dimethyl sulfoxide solution of each test compound was added thereto to become a final concentration of 30 µM, 10 μM, 3 μM, […], 0.3 μM or […], and then incubated at 37° C. for additional 24 hours. Thereafter, the reporter activity was measured to determine 50% activity inhibition concentration (IC50) of each test compound. As a control of the compound treatment, reporter activity when the same volume of dimethyl sulfoxide alone was added was regarded as 100%. Other conditions and measurement of reporter activity were as described in Example 3. Substances which inhibit CTGF promoter activation by FGK were selected, and the substances having an IC50 value of 10 μM or less were shown in Table 1. It was confirmed that a substance which inhibits CTGF expression by the assay system, namely a substance useful as a renal failure treating agent can be certainly be screened.

The target in another assay is T1, human FGK (Homo sapiens, UniProt Q9BXA5, A284G/P282A).
T1 construct: A complete cDNA coding for the FGK of the present invention was obtained by PCR using a human kidney cDNA; expressed in transfected cells; host or cells: HEK293 cells (ATCC), transient transfection with FuGENE6
T1 sequence (Q9BXA5 5-334 P282A/A284G): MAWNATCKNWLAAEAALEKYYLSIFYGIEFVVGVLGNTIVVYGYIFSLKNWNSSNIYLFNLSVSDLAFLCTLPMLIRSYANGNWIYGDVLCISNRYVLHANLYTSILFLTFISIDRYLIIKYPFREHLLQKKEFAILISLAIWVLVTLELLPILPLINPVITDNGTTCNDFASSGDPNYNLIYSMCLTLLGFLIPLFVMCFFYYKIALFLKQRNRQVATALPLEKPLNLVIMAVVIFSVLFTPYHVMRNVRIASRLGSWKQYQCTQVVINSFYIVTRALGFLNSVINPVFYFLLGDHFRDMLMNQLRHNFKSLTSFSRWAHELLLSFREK
The assay is described as follows: Screening of substances inhibiting FGK activity: pEF-BOS-Gqi + pSRE-luc luciferase reporter in HEK293 cells transfected with human FGK. Particulars: pEF-BOS-Gqi and human FGK plasmid, 24 hours with compound, DMSO control = 100%, read-out: Example 5 Inhibition of pGqi + pSRE-luc reporter activity IC50. On the procedure:
An expression plasmid used in the Example for expressing a chimeric protein of Gq and Gi was prepared by cloning, a gene (hereinafter, to be referred to as Gqi gene) constructed by replacing 5 amino acids in the Gq C-terminal side (Glu-Tyr-Asn-Leu-Val; the amino acid sequence represented by SEQ ID NO:15) with 5 amino acids in the Gi C-terminal side (Asp-Cys-Gly-Leu-Phe; the amino acid sequence represented by SEQ ID NO:16) in accordance with the method of Conklin, B. R. et al. (Nature, 363, 274-276, 1993) into the plasmid pEF-BOS-dhfr. The constructed plasmid was named pEF-BOS-Gqi.
As the illustrative method, firstly, using Dulbecco's modified Eagle's medium (DMEM) containing 10% fetal bovine serum, HEK293 cells (obtained from ATCC) were dispensed in 1×10^5 cells per well portions into a 24-well plate (Asahi Technbglass) and cultured for 24 hours. Then transfection of 0.05 μg of a reporter plasmid pSRE-luc in which a serum response sequence was inserted into upstream of a luciferase gene (PathDetect™ SRE cis-Reporting System; Stratagene), 0.05 μg of pEF-BOS-Gqi and 0.5 μg at the maximum of a human FGK expression plasmid which is 0.6 μg in total per well was carried out using a transfection reagent (FuGENE6; Boehringer-Roche). Cells transfected with the pcDNA3.1 vector alone without containing FGK, together with the reporter plasmid and pEF-BOS-Gqi, was used as the control. Other conditions and measurement of the reporter activity were as described in Example 3. Increase in the reporter activity by the expression of FGK was observed. Additionally, dose-dependent activation by FGK was also observed.
Screening of a test substance was carried out using the screening system which uses changes in FGK activity as the index, constructed in Example 4.
Using 10% fetal bovine serum-containing Dulbecco's modified Eag;e's medium(DMEM),HEK293 cells(obtained from ATCC) were inoculated in 1×10^4 cells per well portions into a 96-well plate (Asahi Technoglass) and cultured at 37° C. for 24 hours. Transfection of 0.01 μg of the reporter plasmid pSRE-luc (Example 4), 0.03 μg of pEF-BOS-Gqi and 0.02 μg of a human FGK expression plasmid which is 0.06 μg in total per well was carried out using a transfection reagent (FuGENE6; Boehringer-Roche). After 6 hours of incubation at 37° C., a dimethyl sulfoxide solution of each test compound was added to become a final concentration of 30 μM, 10 μM, 3 μM, […], 0.3 μM or 0.1 μM, and then incubated at 37° C. for additional 24 hours. Thereafter, the reporter activity was measured to determine 50% activity inhibition concentration (IC50) of each test compound. As a control of the compound treatment, reporter activity when the same volume of dimethyl sulfoxide alone was added was regarded as 100%. Other conditions and measurement of reporter activity were as described in Example 4.
On the technique in general: In a reporter assay the amount or activity of a reporter protein is the signal.

On to `CC(=O)Nc1ccc(-c2csc(Nc3cccc(C(F)(F)F)c3)n2)cc1` [No 4, N-[4-(2-{[3-(trifluoromethyl)phenyl]amino}-1,3-thiazol-4-yl)phenyl]acetamide], for which the “Example 6 Inhibition Intrinsic CTGF mRNA Expression at 10 μM” value with CTGF mRNA expression is listed as 65%. Besides, the IC50 in assay [1] is 3.6 µM; at human FGK, 3.9 µM.

Consider `Cc1cc(C(=O)C(F)(F)F)c(C)n1-c1ccc(NC(=O)c2ccccc2F)cc1` [No 7, N-{4-[2,5-dimethyl-3-(trifluoroacetyl)-1H-pyrrol-1-yl]phenyl}-2-fluorobenzamide], for which the “Example 6 Inhibition Intrinsic CTGF mRNA Expression at 10 μM” value in the assay on CTGF mRNA expression is given as 36%. Moreover, the IC50 in assay [1] turned out to be 1.7 µM; on human FGK, 3.1 µM.

For the molecule `CCOC(=O)c1c(C)nn(-c2ccc(NC(=O)c3ccccc3C(=O)O)cc2)c1C` [No 6, 2-[({4-[4-(ethoxycarbonyl)-3,5-dimethyl-1H-pyrazol-1-yl]phenyl}amino)carbonyl]benzoic acid], in the assay with CTGF mRNA expression, the “Example 6 Inhibition Intrinsic CTGF mRNA Expression at 10 μM” value was found to be 35%. Moreover, the results for the IC50 (in assay [1]; at human FGK) were 3.8 µM and 6.8 µM, respectively.

Consider `CC(=O)Nc1nc(C)c(-c2csc(Nc3cccc(C)c3)n2)s1` [No 3, N-[4′-methyl-2-[(3-methylphenyl)amino]-4,5′-bi-1,3-thiazol-2′-yl]acetamide hydrobromate], for which the “Example 6 Inhibition Intrinsic CTGF mRNA Expression at 10 μM” value in the assay with CTGF mRNA expression was found to be 79%. The IC50 came out at 2.6 µM in assay [1] and 0.6 µM at human FGK.

Take `CC(=O)Nc1nc(C)c(-c2csc(Nc3ccc(O)cc3)n2)s1` [No 5, N-{2-[(4-hydroxyphenyl)amino]-4′-methyl-4,5′-bi-1,3-thiazol-2′-yl}acetamide hydrobromate]: in the assay with CTGF mRNA expression, the “Example 6 Inhibition Intrinsic CTGF mRNA Expression at 10 μM” value came to 81%. Also, the IC50 in assay [1] amounted to 1.8 µM; at human FGK, 2.5 µM.

Regarding `COc1ccc(Cl)cc1Nc1nc(-c2cccs2)cs1` [No 2, N-(5-chloro-2-methoxyphenyl)-4-(2-thienyl)-1,3-thiazole-2-amine], in the assay with CTGF mRNA expression, the “Example 6 Inhibition Intrinsic CTGF mRNA Expression at 10 μM” value is 72%. In addition, the IC50 in assay [1] was 16.1 µM; at human FGK, 4.6 µM.

In the case of `CCOc1ccc(Nc2nc(-c3sc(N)nc3C)cs2)cc1` [No 1, N^2-(4-ethoxyphenyl)-4′-methyl-4,5′-bi-1,3-thiazole-2,2′-diamine], the “Example 6 Inhibition Intrinsic CTGF mRNA Expression at 10 μM” value with CTGF mRNA expression turned out to be 62%. Besides, the IC50 is 14.1 µM in assay [1] and 6.1 µM at human FGK.

What is called IC50 is the concentration that inhibits the measured activity by half.
